We go through 2 molecules from patent US11542287B2, “Alkyldiphenylmethane protective agent” (priority 2017, dated 2023).

Values after ≈ are worked out from the molar mass of the structure shown. Peptide text beside a SMILES is read from it.

The data set can be described thus: physchem. It is filed as physicochemical. Here is the method:
Results of measurement of solubility of a peptide protected with an alkyldiphenylmethane protective agent of the present invention are shown below.
Peptide used as model: H-Phe-Leu-Gly-NH2
H-Phe-Leu-Gly-NH2 and H-Phe-Leu-Gly-NH-(TIPS2-Dpm(Me)) were synthesized, CPME (cyclopentyl methyl ether) was saturated with each of the compounds at 25° C., and the solubility was measured.
As a result, merely 0.2 mM of H-Phe-Leu-Gly-NH2 to which an alkyldiphenylmethane protective agent was not bonded was dissolved in CPME. […] H-Phe-Leu-Gly-NH2 and H-Phe-Leu-Gly-NH-(TIPS2-Dpm(Me)) represent the following structures.

As a reminder, the solubility is the concentration that dissolves in the medium under given conditions. Low values mean little dissolved substance, high ones much dissolved substance. In the case of `CC(C)C[C@H](NC(=O)[C@@H](N)Cc1ccccc1)C(=O)NCC(=O)NC(C)(c1ccc(OCCCCCCCCCCCO[Si](C(C)C)(C(C)C)C(C)C)cc1)c1ccc(OCCCCCCCCCCCO[Si](C(C)C)(C(C)C)C(C)C)cc1` [H-Phe-Leu-Gly-NH-(TIPS2-Dpm(Me))], the “increase in solubility versus H-Phe-Leu-Gly-NH2” value was ≥ 4,190 fold and the solubility is not below 838000 µM. Molecule `CC(C)C[C@H](NC(=O)[C@@H](N)Cc1ccccc1)C(=O)NCC(N)=O` [H-Phe-Leu-Gly-NH2, reference compound] (H-Phe-Leu-Gly-NH2) came in with a solubility of 200 µM (≈ 0.0669 mg/mL).
